From patent US7928140B2, “Benzothiazole PI3 kinase modulators for cancer treatment” (Amgen Inc., priority 2007, dated 2011) come the findings set out here.

One test addresses T1, PI3K α (Homo sapiens, UniProt P42336).
T1 construct: Full length p110 subunits of PI3K α, β and δ, N-terminally labeled with polyHis tag; polyHis (N); made in house; host or cells: Sf9 insect cells (baculovirus)
Briefly: In vitro PI3 kinase enzyme assay (alpha), ATP loss, bioluminescence.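 Also: purified p110α/p85 heterodimer acting on PtdIns(4,5)P2 at room temperature, remaining ATP read by luminescence, inhibition scaled between compound-free wells with and without enzyme.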 It is filed as biochemical. Conditions: read-out: PI3Kα ATP loss IC50.

For test [1], the system named is phosphorylation of Serine 473 in Akt, HCT 116 human colon carcinoma cells. Briefly: Cell-based phospho-AKT Ser473 assay (MSD sandwich immunoassay, IGF-1 stimulated). As to conditions: Homo sapiens, HCT-116, HCT 116 cells; read-out: HCT 116 pAKT IC50. An outline of the steps: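 HCT116 cells, 16,000/well and plated overnight, were pre-treated with serially diluted compound for 2 h at 37 °C, then stimulated with IGF-1 at 100 ng/ml for 15 min. Lysates were assayed for Akt pSer473 by MSD sandwich electrochemiluminescence, and IC50 was derived from dose-response data.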

For a further test, the target named is T2, PI3K β (Homo sapiens, UniProt P42338).
T2 construct: Full length p110 subunits of PI3K α, β and δ, N-terminally labeled with polyHis tag; polyHis (N); made in house; host or cells: Sf9 insect cells (baculovirus)
As to the kind of experiment: In vitro PI3 kinase enzyme assay (beta), ATP loss, bioluminescence.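 Also: purified p110β/p85 heterodimer with PtdIns(4,5)P2 as acceptor, incubated at room temperature, leftover ATP read by luminescence, inhibition scaled to compound-free wells with and without enzyme.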 It is filed as biochemical. As to conditions: read-out: PI3Kβ ATP loss IC50.

T2 sequence (P42338 whole entry): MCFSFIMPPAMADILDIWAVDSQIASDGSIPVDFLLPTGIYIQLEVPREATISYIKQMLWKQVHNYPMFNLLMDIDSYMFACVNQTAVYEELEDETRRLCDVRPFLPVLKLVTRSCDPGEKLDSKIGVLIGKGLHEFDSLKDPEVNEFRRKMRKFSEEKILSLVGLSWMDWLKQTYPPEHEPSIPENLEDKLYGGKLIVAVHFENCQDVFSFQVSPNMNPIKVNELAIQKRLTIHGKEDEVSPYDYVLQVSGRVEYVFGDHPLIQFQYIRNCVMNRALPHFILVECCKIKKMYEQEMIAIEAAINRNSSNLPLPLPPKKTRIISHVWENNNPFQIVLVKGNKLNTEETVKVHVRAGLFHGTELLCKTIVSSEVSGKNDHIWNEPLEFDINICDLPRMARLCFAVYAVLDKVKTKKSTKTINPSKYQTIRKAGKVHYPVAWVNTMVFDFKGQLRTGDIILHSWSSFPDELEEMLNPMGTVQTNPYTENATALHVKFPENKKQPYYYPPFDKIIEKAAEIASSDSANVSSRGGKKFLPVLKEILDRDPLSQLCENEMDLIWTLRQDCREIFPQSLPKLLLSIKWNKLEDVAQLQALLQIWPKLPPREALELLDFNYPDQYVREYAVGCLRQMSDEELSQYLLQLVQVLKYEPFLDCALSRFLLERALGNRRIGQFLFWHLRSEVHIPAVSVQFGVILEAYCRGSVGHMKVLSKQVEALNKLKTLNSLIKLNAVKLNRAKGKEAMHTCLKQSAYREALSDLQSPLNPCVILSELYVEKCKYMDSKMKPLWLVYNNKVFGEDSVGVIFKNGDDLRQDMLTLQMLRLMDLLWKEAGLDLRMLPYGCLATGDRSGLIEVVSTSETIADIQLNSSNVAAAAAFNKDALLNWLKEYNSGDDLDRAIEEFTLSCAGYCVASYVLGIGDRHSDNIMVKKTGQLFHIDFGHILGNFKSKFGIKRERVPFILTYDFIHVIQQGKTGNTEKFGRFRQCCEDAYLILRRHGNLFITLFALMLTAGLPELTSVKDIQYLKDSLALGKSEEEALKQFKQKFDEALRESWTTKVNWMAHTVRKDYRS
T2 sequence (P27986 whole entry partner): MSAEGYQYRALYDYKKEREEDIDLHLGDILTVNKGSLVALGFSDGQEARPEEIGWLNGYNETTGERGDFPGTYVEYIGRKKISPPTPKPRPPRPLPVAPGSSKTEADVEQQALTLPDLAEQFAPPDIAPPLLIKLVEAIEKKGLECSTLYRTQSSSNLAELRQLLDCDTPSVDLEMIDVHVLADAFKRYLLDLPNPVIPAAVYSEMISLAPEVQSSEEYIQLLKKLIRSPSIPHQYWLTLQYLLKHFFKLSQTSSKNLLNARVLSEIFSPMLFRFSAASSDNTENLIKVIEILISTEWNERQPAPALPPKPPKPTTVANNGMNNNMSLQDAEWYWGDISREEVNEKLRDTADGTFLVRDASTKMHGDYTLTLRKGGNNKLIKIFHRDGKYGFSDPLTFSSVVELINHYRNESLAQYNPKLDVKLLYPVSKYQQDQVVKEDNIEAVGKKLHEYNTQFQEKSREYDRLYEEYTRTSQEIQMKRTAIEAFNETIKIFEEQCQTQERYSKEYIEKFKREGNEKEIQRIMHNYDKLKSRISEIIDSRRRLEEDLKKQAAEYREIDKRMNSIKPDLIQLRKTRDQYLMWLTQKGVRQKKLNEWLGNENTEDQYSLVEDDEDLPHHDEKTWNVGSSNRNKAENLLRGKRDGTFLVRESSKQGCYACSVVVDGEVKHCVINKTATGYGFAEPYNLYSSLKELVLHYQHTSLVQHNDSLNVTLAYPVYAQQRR
T1 sequence (P42336 whole entry, species assumed): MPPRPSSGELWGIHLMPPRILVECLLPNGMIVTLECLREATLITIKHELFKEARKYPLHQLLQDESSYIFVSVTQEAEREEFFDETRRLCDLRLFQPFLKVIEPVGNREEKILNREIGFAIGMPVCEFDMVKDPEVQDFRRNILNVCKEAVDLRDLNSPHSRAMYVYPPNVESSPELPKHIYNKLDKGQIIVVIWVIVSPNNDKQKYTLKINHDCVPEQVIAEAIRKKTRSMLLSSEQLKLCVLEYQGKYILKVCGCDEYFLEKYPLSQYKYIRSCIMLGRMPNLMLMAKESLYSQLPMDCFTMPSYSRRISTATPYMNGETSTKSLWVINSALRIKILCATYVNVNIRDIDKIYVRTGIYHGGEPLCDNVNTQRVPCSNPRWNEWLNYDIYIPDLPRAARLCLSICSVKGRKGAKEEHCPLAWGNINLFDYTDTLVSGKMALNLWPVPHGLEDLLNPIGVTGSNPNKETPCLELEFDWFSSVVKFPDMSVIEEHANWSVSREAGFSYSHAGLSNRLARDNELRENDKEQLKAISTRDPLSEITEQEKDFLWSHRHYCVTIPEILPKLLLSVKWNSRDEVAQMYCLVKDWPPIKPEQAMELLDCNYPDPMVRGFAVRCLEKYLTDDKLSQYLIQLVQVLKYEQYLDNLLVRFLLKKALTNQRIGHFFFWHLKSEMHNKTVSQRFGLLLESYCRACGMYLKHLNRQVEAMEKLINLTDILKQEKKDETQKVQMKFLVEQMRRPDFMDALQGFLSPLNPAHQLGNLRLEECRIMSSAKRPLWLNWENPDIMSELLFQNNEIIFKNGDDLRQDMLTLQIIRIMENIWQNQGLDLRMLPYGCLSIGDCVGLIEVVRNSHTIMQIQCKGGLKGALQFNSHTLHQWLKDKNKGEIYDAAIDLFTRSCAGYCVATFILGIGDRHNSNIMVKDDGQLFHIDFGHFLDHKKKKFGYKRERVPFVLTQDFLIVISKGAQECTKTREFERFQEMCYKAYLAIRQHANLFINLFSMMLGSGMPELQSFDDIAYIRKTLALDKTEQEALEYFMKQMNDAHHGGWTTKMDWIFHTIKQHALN
T1 sequence (P27986 whole entry partner, species assumed): as the sequence (P27986 whole entry partner) above

A word on the IC50: it is the concentration needed to halve the response being measured. Consider `CC(=O)Nc1nc2ccc(-c3cncc(NS(=O)(=O)c4ccc(F)cc4)c3)nc2s1` [Example 228, N-(5-(5-(4-Fluorophenylsulfonamido)pyridin-3-yl)thiazolo[5,4-b]pyridin-2-yl)acetamide], for which the IC50 was 7.5 nM at PI3K α, 54.9 nM in test [1] and 55.9 nM at PI3K β.
As for `CNc1nc2ccc(-c3cnc(Cl)c(NS(=O)(=O)c4ccc(C(C)(C)NC(C)=O)cc4)c3)cc2s1` [Example 322, N-(1-(4-((2-chloro-5-(2-(methylamino)-1,3-benzothiazol-6-yl)-3-pyridinyl)sulfamoyl)phenyl)-1-methylethyl)acetamide], the results for the IC50 (at PI3K α; in test [1]; on PI3K β) were 10.8 nM, 558 nM and 25.4 nM, respectively.
`CC(=O)Nc1nc2ccc(-c3cnc(Cl)c(NS(=O)(=O)c4cccc(OC(F)F)c4)c3)cc2s1` [Example 184, N-(6-(6-chloro-5-(3-(difluoromethoxy)phenylsulfonamido)pyridin-3-yl)benzo[d]thiazol-2-yl)acetamide]: the IC50 on PI3K α was 7.2 nM; in test [1], 6.5 nM; on PI3K β it was 12.2 nM.
On the same counts, the results for `COc1ccc(S(=O)(=O)Nc2cc(-c3ccc4nc(NC(C)=O)sc4c3)cnc2C#N)cc1` [Example 267, N-(6-(6-cyano-5-(4-methoxyphenylsulfonamido)pyridin-3-yl)benzo[d]thiazol-2-yl)acetamide] are 14.5 nM, 1430 nM and 20.9 nM.
As for `CC(=O)Nc1nc2ccc(-c3cnc(Cl)c(NS(=O)(=O)c4ccc(C(C)O)cc4)c3)cc2s1` (stereo not drawn) [Example 256, N-(6-(6-chloro-5-(4-(1-hydroxyethyl)phenylsulfonamido)pyridin-3-yl)benzo[d]thiazol-2-yl)acetamide], the IC50 at PI3K α stood at 5.2 nM; in test [1], 9.9 nM; on PI3K β, 7.3 nM.
The corresponding values for `CC(=O)Nc1nc2ccc(-c3ccnc(NS(=O)(=O)c4ccc(C)cc4)c3)cc2s1` [Example 216, N-(6-(2-(4-methylphenylsulfonamido)pyridin-4-yl)benzo[d]thiazol-2-yl)acetamide] are 35.1 nM, 79.4 nM and 120 nM.
The corresponding values for `CNc1nc2ccc(-c3cnc(Cl)c(NS(=O)(=O)c4ccc(C(C)=O)cc4)c3)cc2s1` [Example 321, 4-acetyl-N-(2-chloro-5-(2-(methylamino)-1,3-benzothiazol-6-yl)-3-pyridinyl)benzenesulfonamide] are 12 nM, 672 nM and 22.2 nM.
For `CNc1nc2ccc(-c3cnc(Cl)c(NS(=O)(=O)c4ccccc4F)c3)cc2s1` [Example 320, N-(2-chloro-5-(2-(methylamino)-1,3-benzothiazol-6-yl)-3-pyridinyl)-2-fluorobenzenesulfonamide], the figures for the IC50 (at PI3K α; in test [1]; on PI3K β) were 14.6 nM, 448 nM and 61.8 nM, respectively.
On to `CC(C)Nc1cc(-c2ccc3nc(NC(=O)Cc4ccccn4)sc3c2)cnc1Cl` [Example 141, N-(6-(6-chloro-5-(isopropylamino)pyridin-3-yl)benzo[d]thiazol-2-yl)-2-(pyridin-2-yl)acetamide], for which the IC50 amounted to 95.4 nM on PI3K α, 850 nM in test [1] and 846 nM at PI3K β.
As to `Nc1nc2ccc(-c3cnc(Cl)c(NS(=O)(=O)c4ccccc4C(F)(F)F)c3)cc2s1` [Example 314, N-(5-(2-amino-1,3-benzothiazol-6-yl)-2-chloro-3-pyridinyl)-2-(trifluoromethyl)benzenesulfonamide], the IC50 on PI3K α worked out at 2.5 nM; in test [1], 205 nM; on PI3K β, 12.7 nM.
In the case of `CC(=O)Nc1nc2ccc(-c3cnc(Cl)c(NS(=O)(=O)c4ccc(O)cc4)c3)cc2s1` [Example 174, N-(6-(6-chloro-5-(4-hydroxyphenylsulfonamido)pyridin-3-yl)benzo[d]thiazol-2-yl)acetamide], the IC50 was 7.2 nM at PI3K α, 15.5 nM in test [1] and 12.3 nM at PI3K β.
As to `COc1cccc(S(=O)(=O)Nc2nccc(-c3ccc4nc(NC(C)=O)sc4c3)n2)c1` [Example 85, N-(6-(2-(((3-methoxyphenyl)sulfonyl)amino)-4-pyrimidinyl)-1,3-benzothiazol-2-yl)acetamide], the IC50 at PI3K α came to 20.1 nM; in test [1], 917 nM; on PI3K β, 82.6 nM.
On to `CC(=O)Nc1nc2ccc(-c3ccnc(N(C)S(=O)(=O)c4cccs4)n3)cc2s1` [Example 206, N-(6-(2-(N-methylthiophene-2-sulfonamido)pyrimidin-4-yl)benzo[d]thiazol-2-yl)acetamide], for which the IC50 at PI3K α was found to be 177 nM; in test [1], 381 nM; at PI3K β, 194 nM.
The corresponding values for `CC(=O)Nc1nc2ccc(-c3cnc(C#N)c(N)c3)cc2s1` [Example 268, N-(6-(5-amino-6-cyanopyridin-3-yl)benzo[d]thiazol-2-yl)acetamide] are 241 nM, 842 nM and 17000 nM.
On the same counts, the results for `COc1ccc(Sc2nccc(-c3ccc4nc(NC(C)=O)sc4c3)n2)c(C)c1` [Example 27, N-(6-(2-((4-methoxy-2-methylphenyl)sulfanyl)-4-pyrimidinyl)-1,3-benzothiazol-2-yl)acetamide] are 40 nM, 594 nM and 201 nM.
Consider `COc1cc(-c2ccc3nc(NC(C)=O)sc3c2)cnc1Cl` [Example 240, N-(6-(6-chloro-5-methoxypyridin-3-yl)benzo[d]thiazol-2-yl)acetamide], for which the IC50 at PI3K α was determined as 155 nM; in test [1] it was 643 nM; on PI3K β, 1280 nM.
As for `COc1ccc(S(=O)(=O)c2cccc(-c3ccc4nc(NC(C)=O)sc4c3)n2)cc1` [Example 68, N-(6-(6-(4-Methoxyphenylsulfonyl)pyridin-2-yl)benzo[d]thiazol-2-yl)acetamide], the IC50 was found to be 86.5 nM at PI3K α, 664 nM in test [1] and 676 nM at PI3K β.
On the same counts, the results for `CC(=O)Nc1nc2ccc(-c3cnc(C)c(NS(=O)(=O)c4ccc(F)cc4)c3)cc2s1` [Example 111, N-(6-(5-(((4-fluorophenyl)sulfonyl)amino)-6-methyl-3-pyridinyl)-1,3-benzothiazol-2-yl)acetamide] are 4.1 nM, 25.5 nM and 13.1 nM.
On the same counts, the results for `COc1ccc(Sc2ncc(-c3ccc4nc(NC(C)=O)sc4c3)s2)cc1` [Example 62, N-(6-(2-(4-methoxyphenylthio)thiazol-5-yl)benzo[d]thiazol-2-yl)acetamide] are 29.9 nM, 2580 nM and 5210 nM.
The corresponding values for `CC(=O)Nc1nc2ccc(-c3ccnc(O[C@H](C)c4ccccc4)n3)cc2s1` [Example 43, N-(6-(2-((1R)-1-phenylethoxy)-4-pyrimidinyl)-1,3-benzothiazol-2-yl)acetamide] are 104 nM, 1060 nM and 517 nM.
As for `CC(=O)Nc1nc2ccc(-c3cncc(N(C)S(=O)(=O)c4ccc(F)c(F)c4)c3)cc2s1` [Example 222, N-(6-(5-(3,4-difluoro-N-methylphenylsulfonamido)pyridin-3-yl)benzo[d]thiazol-2-yl)acetamide], the IC50 turned out to be 377 nM at PI3K α, 2180 nM in test [1] and 2890 nM at PI3K β.
The corresponding values for `Nc1nc2ccc(-c3cnc(Cl)c(NS(=O)(=O)c4ccc(Cl)cc4Cl)c3)cc2s1` [Example 310, N-(5-(2-amino-1,3-benzothiazol-6-yl)-2-chloro-3-pyridinyl)-2,4-dichlorobenzenesulfonamide] are 7.6 nM, 402 nM and 17.4 nM.
The corresponding values for `CC(=O)Nc1nc2ccc(-c3ccnc(N(C)S(=O)(=O)c4ccccc4)n3)cc2s1` [Example 91, N-(6-(2-(methyl(phenylsulfonyl)amino)-4-pyrimidinyl)-1,3-benzothiazol-2-yl)acetamide] are 181 nM, 310 nM and 237 nM.
The corresponding values for `Nc1nc2ccc(-c3cnc(Cl)c(NS(=O)(=O)c4ccc(C(F)(F)F)cc4Cl)c3)cc2s1` [Example 308, N-(5-(2-amino-1,3-benzothiazol-6-yl)-2-chloro-3-pyridinyl)-2-chloro-4-(trifluoromethyl)benzenesulfonamide] are 2.6 nM, 501 nM and 10.6 nM.
Take `CC(=O)Nc1nc2ccc(-c3ccnc(Sc4ccc(F)cc4)n3)cc2s1` [Example 26, N-(6-(2-((4-fluorophenyl)sulfanyl)-4-pyrimidinyl)-1,3-benzothiazol-2-yl)acetamide]: the IC50 on PI3K α was 122 nM; in test [1] it was 1020 nM; at PI3K β, 407 nM.
On the same counts, the results for `CC(=O)Nc1nc2ccc(-c3cnc(Cl)c(O[C@H]4CCOC4)c3)cc2s1` [Example 236, N-(6-(6-chloro-5-((S)-tetrahydrofuran-3-yloxy)pyridin-3-yl)benzo[d]thiazol-2-yl)acetamide] are 150 nM, 828 nM and 1370 nM.
For `CC(=O)Nc1nc2ccc(-c3ccnc(OCC(C)(C)C)n3)cc2s1` [Example 42, N-(6-(2-(2,2-dimethylpropoxy)-4-pyrimidinyl)-1,3-benzothiazol-2-yl)acetamide], the IC50 at PI3K α is 501 nM; in test [1] it was 6180 nM; on PI3K β it was 43000 nM.
